Source: US20240246954A1, “COMPOSITIONS AND METHODS FOR INHIBITING KRAS” (TheRas, Inc., priority 2021, published 2024)

Legend:
[1] = biological target: T1, Avi-KRAS G12D (1-169) GppNHp/RAF1 RBD-3×FLAG (52-151) (Homo sapiens, UniProt P01116, G12D); experiment: HTRF Raf1-KRAS G12D-GppNHp disruption assay; assay type: biochemical; settings: 1 h incubation
T1 construct: Avi-KRAS G12D (1-169) GppNHp
Procedure: (§1) The HTRF assay employed the following protocol:
(§2) Compounds were dispensed in assay plate (384-well, Grenier Bione #784075) using Echo (model 555) with dose response settings: 200 nL final volume, titration from 100 μM as a 10-point dilution series. Protein mix was prepared in assay buffer, and dispensed on plates, 10 μL per well, then incubated for 1 h at room temperature, with 700 rpm shaking. Reagents mix was prepared and dispensed on plates, 10 μL per well, then incubated for 1 h at room temperature, with 700 rpm shaking.
(§3) Plates were analyzed on an Envision plate reader using the following setting: Excitation 320 nm, Bandwidth […]; Emission 615 nm, Bandwidth […], Gain 100%, Flashes 100, Lag 60 μs. Data was reported as percentage of activity, with DMSO as 100%. Data was plotted and analyzed using Prism 8.

[2] = biological target: T2, Avi-KRAS G12D/Q25A (1-169) GppNHp/3×FLAG-PI3KCA (157-299) (Homo sapiens, UniProt P01116, G12D/Q25A); experiment: HTRF PI3KCA-KRAS G12D/Q25A-GppNHp disruption assay; assay type: biochemical; settings: 1 h incubation
T2 construct: Avi-KRAS G12D/Q25A (1-169) GppNHp
Procedure: as §1, §2, §3

T1 sequence (P01116 1-169 isoform P01116-2 G12D limits assumed): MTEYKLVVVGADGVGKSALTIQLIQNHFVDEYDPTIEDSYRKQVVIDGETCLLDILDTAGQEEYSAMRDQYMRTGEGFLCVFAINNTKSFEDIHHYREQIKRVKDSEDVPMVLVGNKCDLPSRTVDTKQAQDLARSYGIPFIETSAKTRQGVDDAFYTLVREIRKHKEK
T2 sequence (P01116 1-169 isoform P01116-2 G12D/Q25A limits assumed): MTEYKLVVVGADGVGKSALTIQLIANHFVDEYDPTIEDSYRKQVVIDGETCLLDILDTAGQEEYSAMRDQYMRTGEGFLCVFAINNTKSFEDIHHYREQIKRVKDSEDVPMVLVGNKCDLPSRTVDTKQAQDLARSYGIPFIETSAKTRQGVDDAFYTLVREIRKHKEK

Structure (SMILES)	IC50 [1] [µM]	IC50 [2] [µM]
CN1C[C@H](F)C[C@H]1COc1nc(NC2CNC2)c2cc(-c3ccoc3)c(-c3ccc(F)c4sc(N)nc34)c(F)c2n1 [Compound 135]	1 to 10	1 to 10
CN1CC(F)(F)C[C@H]1COc1nc(NCCN)c2cc(Cl)c(-c3ccc(F)c4sc(N)nc34)c(F)c2n1 [Compound 136]	10 to 30	10 to 30
CN1C[C@H](F)C[C@H]1COc1nc(NC2CN(C(=O)CN)C2)c2cc(-c3ccoc3)c(-c3ccc(F)c4sc(N)nc34)c(F)c2n1 [Compound 137]	1 to 10	10 to 30
CN1C[C@H](F)C[C@H]1COc1nc(N2CCNCC2)c2cc(C(F)(F)F)c(-c3ccc(F)c4sc(N)nc34)c(F)c2n1 [Compound 140]	1 to 10	10 to 30
CN1C[C@H](F)C[C@H]1COc1nc(N2CCNCC2)c2cc(-c3ccoc3)c(-c3ccc(F)c4sc(N)nc34)c(F)c2n1 [Compound 141]	10 to 30	10 to 30
CN1CCC[C@H]1COc1nc(N2CCNCC2)c2cc(-c3ccoc3)c(-c3ccc(F)c4sc(N)nc34)c(F)c2n1 [Compound 143, 7-fluoro-4-(8-fluoro-6-(furan-3-yl)-2-(((S)-1-methylpyrrolidin-2-yl)methoxy)-4-(piperazin-1-yl)quinazolin-7-yl)benzo[d]thiazol-2-amine]	10 to 30	10 to 30
CN1CCC[C@H]1COc1nc(N2CCN(C(=O)CN)CC2)c2cc(-c3ccoc3)c(-c3ccc(F)c4sc(N)nc34)c(F)c2n1 [Compound 144, 2-amino-1-(4-(7-(2-amino-7-fluorobenzo[d]thiazol-4-yl)-8-fluoro-6-(furan-3-yl)-2-(((S)-1-methylpyrrolidin-2-yl)methoxy)quinazolin-4-yl)piperazin-1-yl)ethan-1-one]	10 to 30	10 to 30
CN1CCC[C@H]1COc1nc(N2CCNCC2)c2cc(-c3ccccc3)c(-c3ccc(F)c4sc(N)nc34)c(F)c2n1 [Compound 145]	10 to 30	10 to 30
CN1CCC[C@H]1COc1nc(NC2CN(C(=O)CN)C2)c2cc(-c3ccoc3)c(-c3ccc(F)c4sc(N)nc34)c(F)c2n1 [Compound 146]	1 to 10	10 to 30
CN(c1nc(OC[C@@H]2CCCN2C)nc2c(F)c(-c3ccc(F)c4sc(N)nc34)c(Cl)cc12)C1CN(C(=O)CN)C1 [Compound 147]	10 to 30	10 to 30
CN1CCC[C@H]1COc1nc(NCCN)c2cc(C(F)(F)F)c(-c3ccc(F)c4sc(N)nc34)c(F)c2n1 [Compound 149]	1 to 10	1 to 10
CN(c1nc(OC[C@@H]2C[C@@H](F)CN2C)nc2c(F)c(-c3ccc(F)c4sc(N)nc34)c(-c3ccoc3)cc12)C1CN(C(=O)CN)C1 [Compound 150]	10 to 30	10 to 30
CN(c1nc(OCC23CCCN2CCC3)nc2c(F)c(-c3ccc(F)c4sc(N)nc34)c(-c3ccoc3)cc12)C1CN(C(N)=O)C1 [Compound 151]	1 to 10	10 to 30
CN1CCC[C@H]1COc1nc(N(C2CC2)C2CNC2)c2cc(Cl)c(-c3ccc(F)c4sc(N)nc34)c(F)c2n1 [Compound 152]	10 to 30	10 to 30
NCC(=O)N1CC[C@@H]2[C@H]1CN2c1nc(OCC23CCCN2CCC3)nc2c(F)c(-c3ccc(F)c4sc(N)nc34)c(-c3ccoc3)cc12 [Compound 153]	1 to 10	10 to 30
Nc1nc2c(-c3c(C4CCC4)cc4c(N5CCNCC5)ncnc4c3F)ccc(F)c2s1 [Compound 154]	10 to 30	10 to 30
CN1CCC[C@H]1COc1nc(N2CCNCC2)c2cc(-c3cccnc3)c(-c3ccc(F)c4sc(N)nc34)c(F)c2n1 [Compound 155, 7-fluoro-4-(8-fluoro-2-(((S)-1-methylpyrrolidin-2-yl)methoxy)-4-(piperazin-1-yl)-6-(pyridin-3-yl)quinazolin-7-yl)benzo[d]thiazol-2-amine]	10 to 30	1 to 10
CN(c1nc(OC[C@@H]2C[C@@H](F)CN2C)nc2c(F)c(-c3ccc(F)c4sc(N)nc34)c(C(F)(F)F)cc12)C1CN(C(=O)CN)C1 [Compound 156]	10 to 30	10 to 30
Nc1nc2c(-c3c(-c4ccoc4)cc4c(N5CC6CCC(C5)N6)nc(OCC56CCCN5CCC6)nc4c3F)ccc(F)c2s1 [Compound 159]	0.1 to 1	10 to 30
CN1CC(F)(F)C[C@H]1COc1nc(N2CCNCC2)c2cc(C(F)(F)F)c(-c3ccc(F)c4sc(N)nc34)c(F)c2n1 [Compound 160]	10 to 30	10 to 30
Oc1cc(-c2c(Cl)cc3c(N4CC5CCC(C4)N5)nc(OCC45CCCN4CCC5)nc3c2F)c2ccccc2c1 [Compound 161]	1 to 10	1 to 10
NC(=O)N1CCN(c2nc(OCC34CCCN3CCC4)nc3c(F)c(-c4ccc(F)c5sc(N)nc45)c(Cl)cc23)CC1 [Compound 162]	10 to 30	10 to 30

Structure (SMILES)	IC50 [1] [µM]	IC50 [2] [µM]
CN(c1nc(OCC23CCCN2CCC3)nc2c(F)c(-c3ccc(F)c4sc(N)nc34)c(-c3ccoc3)cc12)C1CN(C(=O)CN)C1 [Compound 163]	10 to 30	10 to 30
CN(c1nc(OCC23CCCN2CCC3)nc2c(F)c(-c3ccc(F)c4sc(N)nc34)c(Cl)cc12)C1CN(C(=O)CN)C1 [Compound 164]	10 to 30	10 to 30
NC(=O)N1CCN(c2nc(OCC34CCCN3CCC4)nc3c(F)c(-c4ccc(F)c5sc(N)nc45)c(C(F)(F)F)cc23)CC1 [Compound 165, 4-(7-(2-amino-7-fluorobenzo[d]thiazol-4-yl)-8-fluoro-2-((tetrahydro-1H-pyrrolizin-7a(5H)-yl)methoxy)-6-(trifluoromethyl)quinazolin-4-yl)piperazine-1-carboxamide]	10 to 30	10 to 30
CN(c1nc(OC[C@@H]2CCCN2CCF)nc2c(F)c(-c3ccc(F)c4sc(N)nc34)c(C(F)(F)F)cc12)C1CNC1 [Compound 166]	10 to 30	10 to 30
CCN(c1nc(OC[C@@H]2CCCN2C)nc2c(F)c(-c3ccc(F)c4sc(N)nc34)c(C(F)(F)F)cc12)C1CNC1 [Compound 170]	10 to 30	10 to 30
CN1CCC[C@H]1COc1nc(N2CCNCC2)c2cc(CC#N)c(-c3ccc(F)c4sc(N)nc34)c(F)c2n1 [Compound 175, 2-[7-(2-amino-7-fluoro-1,3-benzothiazol-4-yl)-8-fluoro-2-[[(2S)-1-methylpyrrolidin-2-yl]methoxy]-4-piperazin-1-yl-quinazolin-6-yl]acetonitrile]	10 to 30	1 to 10
CN1CCC[C@H]1COc1nc(N2CCNCC2)c2cc(-c3cnn(C)c3)c(-c3ccc(F)c4sc(N)nc34)c(F)c2n1 [Compound 176]	10 to 30	10 to 30
CCc1cc2c(N3CCNCC3)nc(OC[C@@H]3CCCN3C)nc2c(F)c1-c1ccc(F)c2sc(N)nc12 [Compound 177, 4-(6-ethyl-8-fluoro-2-(((S)-1-methylpyrrolidin-2-yl)methoxy)-4-(piperazin-1-yl)quinazolin-7-yl)-7-fluorobenzo[d]thiazol-2-amine]	10 to 30	10 to 30
N#CCCN1CCC[C@H]1COc1nc(NC2CNC2)c2cc(Cl)c(-c3ccc(F)c4sc(N)nc34)c(F)c2n1 [Compound 178]	10 to 30	10 to 30
CC(C)N(c1nc(OC[C@@H]2CCCN2C)nc2c(F)c(-c3ccc(F)c4sc(N)nc34)c(Cl)cc12)C1CNC1 [Compound 180]	10 to 30	10 to 30
NCC(=O)N1CCN(c2nc(OC[C@]34CCCN3C[C@H](F)C4)nc3c(F)c(-c4ccc(F)c5sc(N)nc45)c(C(F)(F)F)cc23)CC1 [Compound 181]	1 to 10	1 to 10
CN(c1nc(OCC23CCCN2CCC3)nc2c(F)c(-c3ccc(F)c4sc(N)nc34)c(Cl)cc12)C1CN(C(N)=O)C1 [Compound 182]	1 to 10	10 to 30
CN1CCC[C@H]1COc1nc(N(CCC#N)C2CN(C(=O)CN)C2)c2cc(Cl)c(-c3ccc(F)c4sc(N)nc34)c(F)c2n1 [Compound 183]	10 to 30	10 to 30
NC(=O)N1CCN(c2nc(OCC34CCCN3CCC4)nc3c(F)c(-c4ccc(F)c5sc(N)nc45)c(-c4ccoc4)cc23)CC1 [Compound 186]	10 to 30	10 to 30
Nc1nc2c(-c3c(C(F)(F)F)cc4c(N5CCNCC5)nc(OCC56CCCN5CCC6)nc4c3F)ccc(F)c2o1 [Compound 189]	1 to 10	1 to 10
CC1(Nc2nc(OCC34CCCN3CCC4)nc3c(F)c(-c4ccc(F)c5sc(N)nc45)c(Cl)cc23)CNC1 [Compound 190]	1 to 10	1 to 10
CN1CCC[C@H]1COc1nc(N2CCNCC2)c2cc(OC(F)(F)F)c(-c3ccc(F)c4sc(N)nc34)c(F)c2n1 [Compound 191]	1 to 10	1 to 10
Nc1nc2c(-c3c(Cl)cc4c(NC5CNC5)nc(OCC56CCCN5CCC6)nc4c3F)ccc(F)c2o1 [Compound 192]	1 to 10	1 to 10
CCN(c1nc(OC[C@@H]2CCCN2C)nc2c(F)c(-c3ccc(F)c4sc(N)nc34)c(Cl)cc12)C1CNC1 [Compound 196]	10 to 30	10 to 30
CCN(c1nc(OC[C@@H]2CCCN2C)nc2c(F)c(-c3ccc(F)c4sc(N)nc34)c(Cl)cc12)C1CN(C(=O)CN)C1 [Compound 197]	10 to 30	10 to 30
CC1(C)CN2CCCC2(COc2nc(N3CCNCC3)c3cc(C(F)(F)F)c(-c4ccc(F)c5sc(N)nc45)c(F)c3n2)C1 (centres unmarked) [Compound 198]	1 to 10	1 to 10
